Experimental data reported in PubChem BioAssay AID1259407 (Chemical Carcinogenesis Research Information System (CCRIS), 2018).
Calls of active or inactive are those of the source. No rule for the calls is given here.

Tested on: CCRIS mutagenicity, Ames/micronucleus/aberration tests
Experiment: CCRIS mutagenicity studies

Compound: Cc1cc(-c2ccc(N)c(C)c2)ccc1N
- mutagenic call (End Point: IN VITRO CHROMOSOMAL ABERRATIONS, Test System: CHINESE HAMSTER OVARY CELLS, Metabolic Activation: NONE): active; positive
- mutagenic call (End Point: IN VITRO CHROMOSOMAL ABERRATIONS, Test System: CHINESE HAMSTER OVARY CELLS, Metabolic Activation: RAT, LIVER, S-9, AROCLOR 1254): active; positive
- mutagenic call (End Point: IN VITRO CHROMOSOMAL ABERRATIONS, Test System: CHL CELLS, Metabolic Activation: NONE): active; positive (structural changes)
- mutagenic call (End Point: IN VITRO CHROMOSOMAL ABERRATIONS, Test System: CHL CELLS, Metabolic Activation: RAT, LIVER, S-9, SODIUM PHENOBARBITAL AND 5,6-BENZOFLAVONE): inactive; negative; authors report equivocal results for structural changes at the highest
- mutagenic call (Test System: AMES SALMONELLA TYPHIMURIUM, Strain/Indicator: SV50, Metabolic Activation: NONE, Method: PREINCUBATION (PRIVAL METHOD)): inactive; negative
- mutagenic call (Test System: AMES SALMONELLA TYPHIMURIUM, Strain/Indicator: SV50, Metabolic Activation: RAT, LIVER, S-9, AROCLOR 1254, Method: STANDARD PLATE): inactive; negative
- mutagenic call (Test System: AMES SALMONELLA TYPHIMURIUM, Strain/Indicator: TA97, Metabolic Activation: HAMSTER, LIVER, S-9, AROCLOR 1254 (10%), Method: PREINCUBATION): inactive; negative
- mutagenic call (Test System: AMES SALMONELLA TYPHIMURIUM, Strain/Indicator: TA97, Metabolic Activation: HAMSTER, LIVER, S-9, AROCLOR 1254, Method: PREINCUBATION): inactive; negative
- mutagenic call (Test System: AMES SALMONELLA TYPHIMURIUM, Strain/Indicator: TA97, Metabolic Activation: NONE, Method: PREINCUBATION): inactive; negative
- mutagenic call (Test System: AMES SALMONELLA TYPHIMURIUM, Strain/Indicator: TA97, Metabolic Activation: RAT, LIVER, S-9, AROCLOR 1254 (10%), Method: PREINCUBATION): inactive; negative
- mutagenic call (Test System: AMES SALMONELLA TYPHIMURIUM, Strain/Indicator: TA97, Metabolic Activation: RAT, LIVER, S-9, AROCLOR 1254, Method: PREINCUBATION): inactive; negative
- mutagenic call (Test System: AMES SALMONELLA TYPHIMURIUM, Strain/Indicator: TA98(1,8-DNP6), Metabolic Activation: NONE, Method: STANDARD PLATE): inactive; negative
- mutagenic call (Test System: AMES SALMONELLA TYPHIMURIUM, Strain/Indicator: TA98(1,8-DNP6), Metabolic Activation: S-9, Method: STANDARD PLATE): active; positive
- mutagenic call (Test System: AMES SALMONELLA TYPHIMURIUM, Strain/Indicator: TA98, Metabolic Activation: HAMSTER, LIVER, S-9, AROCLOR 1254 (10%), Method: PREINCUBATION): active; positive
- mutagenic call (Test System: AMES SALMONELLA TYPHIMURIUM, Strain/Indicator: TA98, Metabolic Activation: HAMSTER, LIVER, S-9, AROCLOR 1254, Method: PREINCUBATION): active; positive
- mutagenic call (Test System: AMES SALMONELLA TYPHIMURIUM, Strain/Indicator: TA98, Metabolic Activation: NONE, Method: PREINCUBATION): inactive; negative
- mutagenic call (Test System: AMES SALMONELLA TYPHIMURIUM, Strain/Indicator: TA98, Metabolic Activation: NONE, Method: STANDARD PLATE): inactive; negative
- mutagenic call (Test System: AMES SALMONELLA TYPHIMURIUM, Strain/Indicator: TA98, Metabolic Activation: RAT LIVER S-9, AROCLOR 1254, Method: PREINCUBATION): active; positive
- mutagenic call (Test System: AMES SALMONELLA TYPHIMURIUM, Strain/Indicator: TA98, Metabolic Activation: RAT LIVER S-9, PHENOBARBITAL AND BETA-NAPHTHOFLAVONE, Method: PREINCUBATION): active; positive
- mutagenic call (Test System: AMES SALMONELLA TYPHIMURIUM, Strain/Indicator: TA98, Metabolic Activation: RAT, LIVER, S-9, AROCLOR 1254 (10%), Method: PREINCUBATION): active; positive
- mutagenic call (Test System: AMES SALMONELLA TYPHIMURIUM, Strain/Indicator: TA98, Metabolic Activation: RAT, LIVER, S-9, AROCLOR 1254, Method: PREINCUBATION): active; positive
- mutagenic call (Test System: AMES SALMONELLA TYPHIMURIUM, Strain/Indicator: TA98, Metabolic Activation: RAT, LIVER, S-9, AROCLOR 1254, Method: STANDARD PLATE): active; positive
- mutagenic call (Test System: AMES SALMONELLA TYPHIMURIUM, Strain/Indicator: TA98, Metabolic Activation: S-9, Method: STANDARD PLATE): active; positive
- mutagenic call (Test System: AMES SALMONELLA TYPHIMURIUM, Strain/Indicator: TA100, Metabolic Activation: HAMSTER, LIVER, S-9, AROCLOR 1254 (10%), Method: PREINCUBATION): inactive; negative
- mutagenic call (Test System: AMES SALMONELLA TYPHIMURIUM, Strain/Indicator: TA100, Metabolic Activation: HAMSTER, LIVER, S-9, AROCLOR 1254, Method: PREINCUBATION): inactive; negative
- mutagenic call (Test System: AMES SALMONELLA TYPHIMURIUM, Strain/Indicator: TA100, Metabolic Activation: NONE, Method: PREINCUBATION): inactive; negative
- mutagenic call (Test System: AMES SALMONELLA TYPHIMURIUM, Strain/Indicator: TA100, Metabolic Activation: NONE, Method: STANDARD PLATE): inactive; negative
- mutagenic call (Test System: AMES SALMONELLA TYPHIMURIUM, Strain/Indicator: TA100, Metabolic Activation: RAT LIVER S-9, AROCLOR 1254, Method: PREINCUBATION): inactive; negative
- mutagenic call (Test System: AMES SALMONELLA TYPHIMURIUM, Strain/Indicator: TA100, Metabolic Activation: RAT LIVER S-9, PHENOBARBITAL AND BETA-NAPHTHOFLAVONE, Method: PREINCUBATION): inactive; negative
- mutagenic call (Test System: AMES SALMONELLA TYPHIMURIUM, Strain/Indicator: TA100, Metabolic Activation: RAT, LIVER, S-9, AROCLOR 1254 (10%), Method: PREINCUBATION): inactive; negative
- mutagenic call (Test System: AMES SALMONELLA TYPHIMURIUM, Strain/Indicator: TA100, Metabolic Activation: RAT, LIVER, S-9, AROCLOR 1254, Method: PREINCUBATION): inactive; negative
- mutagenic call (Test System: AMES SALMONELLA TYPHIMURIUM, Strain/Indicator: TA100, Metabolic Activation: S-9, Method: STANDARD PLATE): active; positive
- mutagenic call (Test System: AMES SALMONELLA TYPHIMURIUM, Strain/Indicator: TA1535, Metabolic Activation: HAMSTER, LIVER, S-9, AROCLOR 1254 (10%), Method: PREINCUBATION): inactive; negative
- mutagenic call (Test System: AMES SALMONELLA TYPHIMURIUM, Strain/Indicator: TA1535, Metabolic Activation: HAMSTER, LIVER, S-9, AROCLOR 1254, Method: PREINCUBATION): inactive; negative
- mutagenic call (Test System: AMES SALMONELLA TYPHIMURIUM, Strain/Indicator: TA1535, Metabolic Activation: NONE, Method: PREINCUBATION): inactive; negative
- mutagenic call (Test System: AMES SALMONELLA TYPHIMURIUM, Strain/Indicator: TA1535, Metabolic Activation: RAT, LIVER, S-9, AROCLOR 1254 (10%), Method: PREINCUBATION): inactive; negative
- mutagenic call (Test System: AMES SALMONELLA TYPHIMURIUM, Strain/Indicator: TA1535, Metabolic Activation: RAT, LIVER, S-9, AROCLOR 1254, Method: PREINCUBATION): inactive; negative
- mutagenic call (Test System: AMES SALMONELLA TYPHIMURIUM, Strain/Indicator: TA1537, Metabolic Activation: RAT LIVER S-9, PHENOBARBITAL AND BETA-NAPHTHOFLAVONE, Method: PREINCUBATION): inactive; negative
- mutagenic call (Test System: AMES SALMONELLA TYPHIMURIUM, Strain/Indicator: TA1538, Metabolic Activation: HAMSTER, LIVER, S-9, Method: STANDARD PLATE): active; positive
- mutagenic call (Test System: AMES SALMONELLA TYPHIMURIUM, Strain/Indicator: TA1538, Metabolic Activation: RAT, LIVER, S-9, AROCLOR 1254, Method: STANDARD PLATE): active; positive
- mutagenic call (Test System: Ames Salmonella typhimurium, Strain/Indicator: TA98, Metabolic Activation: Rat, Liver, S-9, Sodium phenobarbitone, Method: Preincubation): active; positive, test conducted under both aerobic and anaerobic conditions.
- mutagenic call (Test System: Ames Salmonella typhimurium, Strain/Indicator: TA102, Metabolic Activation: None, Method: Preincubation): inactive; negative
- mutagenic call (Test System: Ames Salmonella typhimurium, Strain/Indicator: TA102, Metabolic Activation: Rat, Liver, S-9, Aroclor 1254, Method: Preincubation): inactive; negative
- mutagenic call (Test System: Ames Salmonella typhimurium, Strain/Indicator: TA1538, Metabolic Activation: Rat, Liver, S-9, Sodium phenobarbitone, Method: Preincubation): active; positive, test conducted under both aerobic and anaerobic conditions.
- mutagenic call (Test System: MOUSE LYMPHOMA, Strain/Indicator: L5178Y (TK+/TK-), Metabolic Activation: NONE, Method: SUSPENSION/PLATE): active; positive
- mutagenic call (Test System: MOUSE LYMPHOMA, Strain/Indicator: L5178Y (TK+/TK-), Metabolic Activation: RAT, LIVER, S-9, AROCLOR 1254, Method: SUSPENSION/PLATE): active; positive
